According to US6737383B1, “Herbicidal oxadiazolidines” (priority 1999, dated 2004):

Assays:
rape = assay: Test B pre/postemergence rape; assay type: in vivo, Brassica napus
How it was run: (§1)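 Test chemicals in a non-phytotoxic solvent mixture with surfactant were sprayed preemergence onto planted seeds and postemergence onto plants 2 to 18 cm tall (1- to 4-leaf stage). After twelve to sixteen days in a greenhouse, injury was visually rated against untreated controls from 0 (no effect) to 10 (complete control).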

velvetleaf = assay: Test B pre/postemergence velvetleaf; assay type: in vivo, Abutilon theophrasti
How it was run: as §1

pigweed = assay: Test B pre/postemergence pigweed; assay type: in vivo, Amaranthus retroflexus
How it was run: as §1

smallflower flatsedge = assay: Test B flood test smallflower flatsedge; assay type: in vivo, Cyperus difformis
How it was run: (§2)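 Read-out is a visual response score from 0 (no effect) to 10 (complete control), assigned by comparison with untreated controls. Treatment was applied at the 2-leaf stage, and plants stayed in the greenhouse for twelve to sixteen days before scoring.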

blackgrass = assay: Test B pre/postemergence blackgrass; assay type: in vivo, Alopecurus myosuroides
How it was run: as §1

crabgrass = assay: Test B pre/postemergence crabgrass; assay type: in vivo, Digitaria sanguinalis
How it was run: as §1

corn = assay: Test B pre/postemergence corn; assay type: in vivo, Zea mays
How it was run: as §1

sugar beet = assay: Test B pre/postemergence sugar beet; assay type: in vivo, Beta vulgaris
How it was run: as §1

morningglory = assay: Test B pre/postemergence morningglory; assay type: in vivo, Ipomoea hederacea
How it was run: as §1

bamyardgrass = assay: Test B flood test barnyardgrass; assay type: in vivo, Echinochloa crus-galli
How it was run: as §2

wheat = assay: Test B pre/postemergence wheat; assay type: in vivo, Triticum aestivum
How it was run: as §1

rice = assay: Test B flood test rice; assay type: in vivo, Oryza sativa
How it was run: as §2

purple nutsedge = assay: Test B pre/postemergence purple nutsedge; assay type: in vivo, Cyperus rotundus
How it was run: as §1

surinam grass = assay: Test B pre/postemergence surinam grass; assay type: in vivo, Brachiaria decumbens
How it was run: as §1

bedstraw = assay: Test B pre/postemergence bedstraw; assay type: in vivo, Galium aparine
How it was run: as §1

duck salad = assay: Test B flood test duck salad; assay type: in vivo, Heteranthera limosa
How it was run: as §2

wild oat = assay: Test B pre/postemergence wild oat; assay type: in vivo, Avena fatua
How it was run: as §1

soybean = assay: Test B pre/postemergence soybean; assay type: in vivo, Glycine max
How it was run: as §1

cocklebur = assay: Test B pre/postemergence cocklebur; assay type: in vivo, Xanthium strumarium
How it was run: as §1

giant foxtail = assay: Test B pre/postemergence giant foxtail; assay type: in vivo, Setaria faberii
How it was run: as §1

[1] = Postemergence, Rate 62 g/ha, scale 0 to 10, 0 is no effect, 10 is complete control
[2] = Postemergence, Rate 250 g/ha, scale of 0 to 10, 0 is no effect, 10 is complete control
[3] = Postemergence, Rate 500 g/ha, scale of 0 to 10 where 0 is no effect and 10 is complete control
[4] = Preemergence, Rate 62 g/ha, scale 0 to 10 (0 no effect, 10 complete control)
[5] = Preemergence, Rate 125 g/ha, scale of 0 to 10 where 0 is no effect and 10 is complete control
[6] = Preemergence, Rate 250 g/ha, scale 0 to 10 (0 no effect, 10 complete control)
[7] = Preemergence, Rate 500 g/ha, scale of 0 to 10 where 0 is no effect and 10 is complete control
[8] = Rate 62 g/ha, flood test species, Pre-emergence, visual evaluation after twelve to sixteen days
[9] = Rate 125 g/ha, under heading Pre-emergence, flood test species, visual evaluation after twelve to sixteen days
[10] = Rate 250 g/ha, Pre-emergence (flood test species), scale 0 to 10, 0 is no effect, 10 is complete control
[11] = Rate 500 g/ha, Pre-emergence section of Table B, 0 to 10 scale (0 no effect, 10 complete control)

CC(=O)NCn1c(=O)on(C(=O)N(c2ccc(F)cc2F)C(C)C)c1=O [Compound 622]
Plant response rating, Rape (rape; [1]): 0
Rape plant response rating (rape; [2]): 0
Plant response rating, Rape (rape; [3]): 0
Rape plant response rating (rape; [4]): 0
Rape plant response rating (rape; [5]): 0
Plant response rating, Rape (rape; [6]): 0
Plant response rating, Rape (rape; [7]): 0
Plant response rating, Velvetleaf (velvetleaf; [1]): 0
Velvetleaf plant response rating (velvetleaf; [2]): 0
Velvetleaf plant response rating (velvetleaf; [4]): 0
Velvetleaf plant response rating (velvetleaf; [5]): 0
Plant response rating, Velvetleaf (velvetleaf; [6]): 0
Plant response rating, Velvetleaf (velvetleaf; [7]): 4
Plant response rating, Redroot pigweed (pigweed; [1]): 0
Redroot pigweed plant response rating (pigweed; [2]): 0
Redroot pigweed plant response rating (pigweed; [4]): 4
Redroot pigweed plant response rating (pigweed; [5]): 7
Plant response rating, Redroot pigweed (pigweed; [6]): 10
Plant response rating, Redroot pigweed (pigweed; [7]): 10
Plant response rating, S. Flatsedge (0 to 10 scale, 0 is no effect, 10 is complete control) (smallflower flatsedge; [8]): 0
S. Flatsedge plant response rating (0 to 10 scale, 0 is no effect, 10 is complete control) (smallflower flatsedge; [9]): 0
S. Flatsedge plant response rating (smallflower flatsedge; [10]): 0
S. Flatsedge plant response rating (smallflower flatsedge; [11]): 0
Plant response rating, Blackgrass (blackgrass; [1]): 0
Blackgrass plant response rating (blackgrass; [2]): 0
Plant response rating, Blackgrass (blackgrass; [3]): 0
Blackgrass plant response rating (blackgrass; [4]): 1
Blackgrass plant response rating (blackgrass; [5]): 2
Plant response rating, Blackgrass (blackgrass; [6]): 3
Plant response rating, Blackgrass (blackgrass; [7]): 6
Plant response rating, Crabgrass (crabgrass; [1]): 2
Plant response rating, Crabgrass (crabgrass; [3]): 5
Crabgrass plant response rating (crabgrass; [4]): 6
Crabgrass plant response rating (crabgrass; [5]): 6
Plant response rating, Crabgrass (crabgrass; [6]): 7
Plant response rating, Crabgrass (crabgrass; [7]): 8
Plant response rating, Corn (corn; [1]): 0
Corn plant response rating (corn; [2]): 0
Plant response rating, Corn (corn; [3]): 0
Corn plant response rating (corn; [4]): 0
Corn plant response rating (corn; [5]): 0
Plant response rating, Corn (corn; [6]): 0
Plant response rating, Corn (corn; [7]): 0
Plant response rating, Sugarbeets (sugar beet; [1]): 0
Sugarbeets plant response rating (sugar beet; [2]): 2
Sugarbeets plant response rating (sugar beet; [4]): 0
Sugarbeets plant response rating (sugar beet; [5]): 0
Plant response rating, Sugarbeets (sugar beet; [6]): 0
Plant response rating, Sugarbeets (sugar beet; [7]): 3
Plant response rating, Morningglory (morningglory; [1]): 0
Morningglory plant response rating (morningglory; [2]): 2
Plant response rating, Morningglory (morningglory; [3]): 2
Morningglory plant response rating (morningglory; [4]): 0
Morningglory plant response rating (morningglory; [5]): 0
Plant response rating, Morningglory (morningglory; [6]): 0
Plant response rating, Morningglory (morningglory; [7]): 0
Plant response rating, Barnyardgrass (0 to 10 scale, 0 is no effect, 10 is complete control) (bamyardgrass; [8]): 0
Barnyardgrass plant response rating (0 to 10 scale, 0 is no effect, 10 is complete control) (bamyardgrass; [9]): 0
Barnyardgrass plant response rating (bamyardgrass; [10]): 0
Barnyardgrass plant response rating (bamyardgrass; [11]): 0
Plant response rating, Wheat (wheat; [1]): 0
Wheat plant response rating (wheat; [2]): 0
Wheat plant response rating (wheat; [4]): 0
Wheat plant response rating (wheat; [5]): 0
Plant response rating, Wheat (wheat; [6]): 0
Plant response rating, Wheat (wheat; [7]): 0
Plant response rating, Rice (0 to 10 scale, 0 is no effect, 10 is complete control) (rice; [8]): 0
Rice plant response rating (0 to 10 scale, 0 is no effect, 10 is complete control) (rice; [9]): 0
Rice plant response rating (rice; [10]): 0
Rice plant response rating (rice; [11]): 0
Plant response rating, Nutsedge (purple nutsedge; [1]): 0
Nutsedge plant response rating (purple nutsedge; [2]): 0
Plant response rating, Nutsedge (purple nutsedge; [3]): 0
Nutsedge plant response rating (purple nutsedge; [4]): 0
Nutsedge plant response rating (purple nutsedge; [5]): 0
Plant response rating, Nutsedge (purple nutsedge; [6]): 0
Plant response rating, Nutsedge (purple nutsedge; [7]): 3
Plant response rating, B. signalgrass (surinam grass; [1]): 0
B. signalgrass plant response rating (surinam grass; [2]): 0
Plant response rating, B. signalgrass (surinam grass; [3]): 0
B. signalgrass plant response rating (surinam grass; [4]): 0
B. signalgrass plant response rating (surinam grass; [5]): 0
Plant response rating, B. signalgrass (surinam grass; [6]): 0
Plant response rating, B. signalgrass (surinam grass; [7]): 4
Plant response rating, Bedstraw (bedstraw; [1]): 0
Bedstraw plant response rating (bedstraw; [4]): 0
Bedstraw plant response rating (bedstraw; [5]): 0
Plant response rating, Bedstraw (bedstraw; [7]): 2
Plant response rating, Ducksalad (0 to 10 scale, 0 is no effect, 10 is complete control) (duck salad; [8]): 0
Ducksalad plant response rating (0 to 10 scale, 0 is no effect, 10 is complete control) (duck salad; [9]): 0
Ducksalad plant response rating (duck salad; [10]): 0
Ducksalad plant response rating (duck salad; [11]): 0
Plant response rating, Wild oats (wild oat; [1]): 0
Wild oats plant response rating (wild oat; [2]): 0
Wild oats plant response rating (wild oat; [4]): 0
Wild oats plant response rating (wild oat; [5]): 0
Plant response rating, Wild oats (wild oat; [6]): 0
Plant response rating, Wild oats (wild oat; [7]): 3
Plant response rating, Soybean (soybean; [1]): 4
Soybean plant response rating (soybean; [2]): 6
Soybean plant response rating (soybean; [4]): 0
Soybean plant response rating (soybean; [5]): 0
Plant response rating, Soybean (soybean; [6]): 0
Plant response rating, Soybean (soybean; [7]): 0
Plant response rating, Cocklebur (cocklebur; [1]): 0
Cocklebur plant response rating (cocklebur; [2]): 0
Plant response rating, Cocklebur (cocklebur; [3]): 2
Cocklebur plant response rating (cocklebur; [4]): 0
Cocklebur plant response rating (cocklebur; [5]): 0
Plant response rating, Cocklebur (cocklebur; [6]): 0
Plant response rating, Giant foxtail (giant foxtail; [1]): 0
Giant foxtail plant response rating (giant foxtail; [2]): 6
Plant response rating, Giant foxtail (giant foxtail; [3]): 7
Giant foxtail plant response rating (giant foxtail; [4]): 4
Plant response rating, Giant foxtail (giant foxtail; [6]): 9
Plant response rating, Giant foxtail (giant foxtail; [7]): 9
